Experimental findings from ChEMBL document CHEMBL5321279 (J Med Chem, 2023) are described below.

Active and inactive are the calls of the source. The calls are words filed in the database; no cut-off is given here. Some results are limits rather than exact numbers.

The test system of data set [1] is PBMC. Briefly: (§1) Cytotoxicity against quiescent human PBMC cells assessed as reduction in cell growth measured after 5 days by CellTiter-Glo assay. Particulars: pbmc, 120 h, time 5 day. It counts as toxicity, cell-based. (Cellular ATP, detected with luciferase, serves as a proxy for viable cell number.)
A short description of data set [2]: Stability of compound in dog gastrointestinal S9 fraction assessed as half life at pH 7.4 measured upto 120 mins by LC-MS/MS analysis. It counts as ADME, subcellular, Canis lupus familiaris, Gastrointestinal tract.
Data set [3] is described as follows: AUC(0 to 24 hrs) in African green monkey at 60 mg/kg, po measured upto 24 hrs by LC-MS/MS analysis. It counts as ADME, organism-based. Particulars: chlorocebus sabaeus, in vivo. Set-up: dose 60 mg/kg, time < 24 hrs, route po.
Data set [4] can be described thus: Stability of compound in rat plasma assessed as half life measured upto 4 hrs by LC-MS/MS analysis. It counts as ADME, cell-free.
Another data set concerns SARS-CoV-2. Description: Antiviral activity against SARS-CoV-2 infected in African green monkey assessed as reduction in viral titer in nasal swabs at 60 to 120 mg/kg, po qd administered for 4 days starting from 8 hrs post infection by PFA assay. Particulars: Severe acute respiratory syndrome coronavirus 2, dose lower 60.0 mg/kg, dose upper […], time 4.0 day. It counts as functional, organism-based.

Data set [5] in a line: AUC(0 to 24 hrs) in rat assessed as prodrug conversion by measuring (2R,3R,4S,5R)-2-(4-aminopyrrolo[2,1-f][1,2,4]triazin-7-yl)-3,4-dihydroxy-5-(hydroxymethyl)tetrahydrofuran-2-carbonitrile at 6 mg/kg, po measured upto 24 hrs by LC-MS/MS analysis. It counts as ADME, organism-based. Further details: time < 24 hrs, dose 6 mg/kg, route po. To be noted: in vivo.
Data set [6] in a line: AUC(0 to 24 hrs) in African green monkey assessed as prodrug conversion by measuring (2R,3R,4S,5R)-2-(4-aminopyrrolo[2,1-f][1,2,4]triazin-7-yl)-3,4-dihydroxy-5-(hydroxymethyl)tetrahydrofuran-2-carbonitrile at […], po measured upto 24 hrs by LC-MS/MS analysis. It counts as ADME, organism-based. Particulars: chlorocebus sabaeus, in vivo.
The nature of data set [7]: Oral bioavailability in cynomolgus monkey assessed as prodrug conversion by measuring (2R,3R,4S,5R)-2-(4-aminopyrrolo[2,1-f][1,2,4]triazin-7-yl)-3,4-dihydroxy-5-(hydroxymethyl)tetrahydrofuran-2-carbonitrile at 11.7 mg/kg administered in solid form measured upto 24 hrs by LC-MS/MS analysis. Particulars: in vivo. Type of data set: ADME, organism-based, Macaca fascicularis.

The next data set has as its target T1, CES2 (cocaine esterase) (Homo sapiens, UniProt O00748).
T1 sequence (O00748 whole entry): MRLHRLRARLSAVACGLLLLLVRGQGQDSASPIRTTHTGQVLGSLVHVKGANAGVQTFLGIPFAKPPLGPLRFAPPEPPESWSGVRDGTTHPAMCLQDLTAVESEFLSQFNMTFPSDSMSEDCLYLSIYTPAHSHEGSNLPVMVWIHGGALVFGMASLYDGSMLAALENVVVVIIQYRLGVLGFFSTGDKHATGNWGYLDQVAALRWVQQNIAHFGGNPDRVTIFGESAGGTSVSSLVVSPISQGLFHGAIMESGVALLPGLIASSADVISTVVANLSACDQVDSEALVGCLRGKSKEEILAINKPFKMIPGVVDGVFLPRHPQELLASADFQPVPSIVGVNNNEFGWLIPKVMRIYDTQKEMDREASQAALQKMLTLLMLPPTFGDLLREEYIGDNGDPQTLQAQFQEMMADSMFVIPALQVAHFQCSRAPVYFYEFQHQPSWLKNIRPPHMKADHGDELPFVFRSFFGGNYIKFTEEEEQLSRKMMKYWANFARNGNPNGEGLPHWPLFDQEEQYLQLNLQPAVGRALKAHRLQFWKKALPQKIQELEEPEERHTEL
Briefly: Stability of compound assessed as human recombinant CES2-mediated compound hydrolysis by measuring half life at pH 7.4 using oseltamivir as substrate measured upto 120 mins by LC-MS/MS analysis. To be noted: recombinant CES2, pH 7.4, probe oseltamivir. It counts as ADME.

The nature of data set [8]: Stability of compound in human gastrointestinal S9 fraction assessed as half life at pH 7.4 measured upto 120 mins by LC-MS/MS analysis. Type of data set: ADME, subcellular, Gastrointestinal tract.
Data set [9] is described as follows: Half life in dog assessed as prodrug conversion by measuring (2R,3R,4S,5R)-2-(4-aminopyrrolo[2,1-f][1,2,4]triazin-7-yl)-3,4-dihydroxy-5-(hydroxymethyl)tetrahydrofuran-2-carbonitrile at […], po measured upto 24 hrs by LC-MS/MS analysis. Type of data set: ADME, organism-based, Canis lupus familiaris. Particulars: in vivo.
The nature of data set [10]: Cmax in cynomolgus monkey assessed as prodrug conversion by measuring (2R,3R,4S,5R)-2-(4-aminopyrrolo[2,1-f][1,2,4]triazin-7-yl)-3,4-dihydroxy-5-(hydroxymethyl)tetrahydrofuran-2-carbonitrile at 11.7 mg/kg, po measured upto 24 hrs by LC-MS/MS analysis. Type of data set: ADME, organism-based, Macaca fascicularis. Set-up: time < 24 hrs, dose 11.7 mg/kg, route po. To be noted: in vivo.

Data set [11] can be described thus: AUC(0 to 24 hrs) in African green monkey at 86.5 mg/kg, po measured upto 24 hrs by LC-MS/MS analysis. It counts as ADME, organism-based. Further details: dose 86.5 mg/kg, time < 24 hrs, route po. Particulars: chlorocebus sabaeus, in vivo.
The nature of data set [12]: Oral bioavailability in African green monkey assessed as prodrug conversion by measuring (2R,3R,4S,5R)-2-(4-aminopyrrolo[2,1-f][1,2,4]triazin-7-yl)-3,4-dihydroxy-5-(hydroxymethyl)tetrahydrofuran-2-carbonitrile at […] measured upto 24 hrs by LC-MS/MS analysis. It counts as ADME, organism-based. To be noted: chlorocebus sabaeus, in vivo.
The subject of data set [13] is PBMC. Briefly: (§2) Cytotoxicity against stimulated human PBMC cells assessed as reduction in cell growth measured after 5 days by CellTiter-Glo assay. Type of data set: toxicity, cell-based. Particulars: pbmc, 120 h, time 5 day.
Data set [14] is described as follows: as §1. Type of data set: toxicity, cell-based. Particulars: quiescent PBMC, time 5 day.
Data set [15] can be described thus: Cmax in African green monkey infected with SARS-CoV-2 assessed as prodrug conversion by measuring (2R,3R,4S,5R)-2-(4-aminopyrrolo[2,1-f][1,2,4]triazin-7-yl)-3,4-dihydroxy-5-(hydroxymethyl)tetrahydrofuran-2-carbonitrile at 10 mg/kg, iv qd administered for day 1 followed by 5 mg/kg administration measured after 6 days by LC-MS/MS analysis. Type of data set: ADME, organism-based, Severe acute respiratory syndrome coronavirus 2. Further details: dose 10 mg/kg, time 6 day, route iv. Particulars: in vivo.

Data set [16] in a line: Prodrug conversion in SARS-CoV-2 infected in African green monkey assessed as (2R,3R,4S,5R)-2-(4-aminopyrrolo[2,1-f][1,2,4]triazin-7-yl)-3,4-dihydroxy-5-(hydroxymethyl)tetrahydrofuran-2-carbonitrile mediated log10 reduction of genomic RNA at 10 mg/kg, iv qd administered for day 1 followed by 5 mg/kg administration measured after 6 days by RT-qPCR analysis. Type of data set: ADME, organism-based, Severe acute respiratory syndrome coronavirus 2. To be noted: in vivo, time 6 day.

Data set [17] in a line: as §2. It counts as toxicity, cell-based. Particulars: stimulated PBMC, time 5 day.
The nature of another data set: in vivo. To be noted: dog, po, 5 mg/kg.
The nature of data set [18]: Prodrug conversion in African green monkey assessed as Nucleotide triphosphate metabolite formation in lung at 20 mg/kg, iv measured upto 24 hrs by LC-MS/MS analysis. Type of data set: ADME, organism-based. Particulars: chlorocebus aethiops, in vivo.

One may read the CC50 as the concentration giving 50% cytotoxicity. The term half-life denotes the time in which the quantity being followed falls by half. The AUC is concentration integrated over time. A word on the Cmax: it is the highest concentration seen after dosing. With `CC(C)C(=O)OC[C@H]1O[C@@](C#N)(c2ccc3c(N)ncnn23)[C@H](O)[C@@H]1O` [OBELDESIVIR], the CC50 in the data set with PBMC [1] and with PBMC [13] was more than 100 µM each time. In addition, the half-life was less than 2 min in [2], less than 3 min in data set [4], less than 2 min on CES2 (cocaine esterase) and less than 2 min in [8]. Further, the AUC in [3] turned out to be 0.03 µM·h; in [5], 7.57 µM·h; in data set [6], 26.6 µM·h; in [11] it was 0.68 µM·h. For the same compound, the result with SARS-CoV-2 was Active. The F came to 18% in data set [7] and 31% in [12]. Also, the t1/2 in data set [9] was 217 min. Moreover, the Cmax in [10] turned out to be 7.57 µM.

Turning to `CCC(CC)COC(=O)[C@H](C)N[P@](=O)(OC[C@H]1O[C@@](C#N)(c2ccc3c(N)ncnn23)[C@H](O)[C@@H]1O)Oc1ccccc1`, the CC50 at 120 h was more than 20 µM in [14] and 14.8 µM in data set [17]. The Cmax in [15] is 1.23 µM. Further, the “log(activity)” value in data set [16] is recorded as -1.38.

The bioavailability is the share of a dose that reaches the circulation, judged against a reference dose that is usually intravenous. `N#C[C@@]1(c2ccc3c(N)ncnn23)O[C@H](CO)[C@@H](O)[C@H]1O` [GS-441524] showed a bioavailability at 24 h in “in vivo” of 89%. Besides, the Drug metabolism in [18] was found to be 0.23 nmol/g.
